Measured values reported in paper PMC10667535 (Nature Communications, 2023).

Target: T1, RSp0980 (Ralstonia pseudosolanacearum, UniProt Q8XR79)
T1 construct: gene narL
Test: biochemical

T1 sequence (Q8XR79 1-222): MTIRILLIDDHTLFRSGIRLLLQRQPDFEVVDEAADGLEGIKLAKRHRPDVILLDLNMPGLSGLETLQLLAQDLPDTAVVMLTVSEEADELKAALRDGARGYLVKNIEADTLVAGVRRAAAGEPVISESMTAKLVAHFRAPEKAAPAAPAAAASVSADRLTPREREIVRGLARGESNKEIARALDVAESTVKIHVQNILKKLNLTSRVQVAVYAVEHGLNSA

Nc1ncnc2c1ncn2[C@@H]1O[C@H](CO)[C@H]2OP(=O)(O)O[C@H]21 [2′,3′-cAMP]
Kd: 82 ± 0.93 µM

Nc1nc2c(ncn2[C@@H]2O[C@@H]3COP(=O)(O)O[C@@H]4[C@H](O)[C@@H](COP(=O)(O)O[C@H]3[C@H]2O)O[C@H]4n2cnc3c(=O)[nH]c(N)nc32)c(=O)[nH]1 [2′,3′-c-di-GMP]
Kd: 126 ± 1.12 µM

Nc1nc2c(ncn2[C@@H]2O[C@@H]3CO[P@](=O)(O)O[C@H]4[C@@H](O)[C@H](n5cnc6c(=O)[nH]c(N)nc65)O[C@@H]4CO[P@](=O)(O)O[C@H]3[C@H]2O)c(=O)[nH]1 [bis-3′,5′-c-di-GMP]
Kd: 130.4 ± 1.3 µM
